From patent US20250129073A1, “INHIBITOR OF RECEPTOR-INTERACTING PROTEIN KINASE 1, AND PREPARATION METHOD AND USE THEREFOR” (CHINA PHARMACEUTICAL UNIVERSITY, priority 2021, published 2025)
pEC50, pIC50: −log10 of the molar value.

What was measured:
[1] = molecular target: RIPK1 kinase (Homo sapiens (Human), UniProt Q13546); test: RIPK1 kinase inhibitory assay (ADP-Glo); assay type: biochemical; details: for inhibition at 10 µM: 10 μM compound, read-out: Inhibition rate of RIPK1 at 10 μM (%)
Method: Materials and Instruments: ADP-Glo kinase kit (purchased from Promega), RIPK1 GST-Th-Tag (purchased from Bps Bioscience), MBP substrate (purchased from Millipore), nunc 384-well plate, ATP fluorescence analyzer Paradigm detection platform (purchased from Beckman coulter)
The compounds were diluted in DMSO and configured into a solution with a final concentration of 10 mM; Dilute RIP1 kinase from 140 ng/μL to 20 ng/μL for use. Dilute 10 mM of ATP to 100 μM for later use; Dilute 5 mg/mL of MBP to 1 mg/mL for later use. Appropriate embodiments were added into the well of the 384-well plate, 10 μl […] ATP was evenly mixed with 1 μl 1 mg/mL MB P, the mixed solution was added to the well, and 2 μL […] RIP1 kinase was added to the hole, and then incubated at room temperature for 1 h. Subsequently, 5 μL ADP-Glo reagent was added to each well and incubated at room temperature for 40 min. Then, 10 μL ADP-Glo detection reagent was added to each well and incubated at room temperature for 30 min. Finally, the RLU value (relative light unit) of each well was measured by ATP fluorometer, and each sample was repeated twice. Inhibition rate=(RLU value of blank group−RLU value of drug administration group)/RLU value of blank group×100%.

[2] = system: U937 cells; test: Cell anti-necroptosis activity assay (LPS + Z-VAD-FMK, CCK8); assay type: cell-based; details: Homo sapiens, U-937; PMA-differentiated U937, LPS 100 ng/ml + Z-VAD-FMK 20 μM, 24 h; read-out: EC50 of inhibition of necroptosis
Method: Materials: U937 cell line (human myeloid leukemia cells), RPMI 1640 medium (purchased from Gibco, USA), penicillin-streptomycin double antibody (purchased from Gibco, USA), fetal bovine serum (purchased from genetic, USA), tetradecanoylphorbol acetate (purchased from biyuntian Biotechnology Co., Ltd.), CCK8 cell proliferation detection kit (purchased from biyuntian Biotechnology Co., Ltd), Z-VAD-FMK (from APExBIO, USA) and LPS (from Sigma, USA).
U937 cells were cultured in RPMI 1640 containing 10% heat inactivated fetal bovine serum and 1% penicillin-streptomycin in a constant temperature cell incubator at 37° C. and 5% CO2, and subcultured every 1-2 days. Human monocytic cell line U937 cells could be induced to differentiate into mature monocytes/macrophages after stimulation with tetradecanoylphorbol acetate (PMA). The cells in the logarithmic growth phase were seeded in 96 well plates at a density of 4×10^4 cells/well and cultured. PMA 100 ng/ml was added for 24 h, and then the fresh medium was changed. The necroptosis model was constructed by stimulation of LPS and caspase inhibitor Z-VAD-FMK. In the experimental groups, LPS (100 ng/ml) was added for 1 hour, and then the solvent control (DMSO) or different concentrations of compounds to be tested (30 μM, 10 μM, 3 μM, 1 μM, 300 nM, 100 nM, 30 nM 7 concentrations in total) for 1 h, and then the experimental groups were treated with caspase inhibitor Z-VAD-FMK (20 μM). The cell viability was detected after 24 h of culture. The control groups were not treated with LPS, drugs and Z-VAD-FMK. No cells were added to the blank hole, only the culture medium. Each group is set with 4 parallel. CCK8 cell proliferation assay kit was used to detect the cell viability and survival rate, and the operation was carried out according to the kit instructions. The cell supernatant was added with 10 μL CCK8 detection reagent, and the cell absorbance (450 nm) was detected by a microplate reader after 0.5 h. Calculate the cell death rate (%)=(average absorbance of control well−average absorbance of experimental group)/(average absorbance of control well−average absorbance of the blank well)×100. Finally, the half effective concentration (EC50) of the drug was calculated by GraphPad Prism 7.0® software.

Chain of RIPK1 kinase (Q13546 whole entry): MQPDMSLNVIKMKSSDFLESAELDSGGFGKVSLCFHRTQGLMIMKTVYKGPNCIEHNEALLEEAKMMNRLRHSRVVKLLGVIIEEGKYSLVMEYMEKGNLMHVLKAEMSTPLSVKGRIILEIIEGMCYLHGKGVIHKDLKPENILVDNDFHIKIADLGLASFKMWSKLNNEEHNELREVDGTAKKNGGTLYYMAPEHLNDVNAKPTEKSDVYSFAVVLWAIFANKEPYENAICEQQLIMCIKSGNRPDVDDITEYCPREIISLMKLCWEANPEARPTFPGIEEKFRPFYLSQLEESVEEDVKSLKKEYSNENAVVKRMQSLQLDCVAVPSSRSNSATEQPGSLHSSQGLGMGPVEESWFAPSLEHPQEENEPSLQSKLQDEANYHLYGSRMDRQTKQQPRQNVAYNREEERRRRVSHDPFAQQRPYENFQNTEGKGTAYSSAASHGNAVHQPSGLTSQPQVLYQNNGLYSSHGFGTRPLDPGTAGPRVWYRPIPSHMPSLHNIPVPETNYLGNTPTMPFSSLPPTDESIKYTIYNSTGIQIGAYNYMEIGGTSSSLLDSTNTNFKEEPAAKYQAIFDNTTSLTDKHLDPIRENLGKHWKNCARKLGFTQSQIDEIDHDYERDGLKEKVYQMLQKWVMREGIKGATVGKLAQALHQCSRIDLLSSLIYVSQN

| SMILES | pIC50 [1] | inhibition at 10 µM [1] [%] | pEC50 [2] |
| --- | --- | --- | --- |
| O=C(c1ccccc1)N1CCC2(CC1)CCN(Cc1cc(F)ccc1F)C2=O [Compound 34, 8-benzoyl-2-(2,5-difluorobenzyl)-2,8-diazaspiro[4.5]decan-1-one] | 6.16 | > 50 | 5.87 |
| O=C(c1cnco1)N1CCC2(CC1)CCN(Cc1cc(F)ccc1F)C2=O [Compound 42, 2-(2,5-difluorobenzyl)-8-(oxazole-5-carbonyl)-2,8-diazaspiro[4.5]decan-1-one] | 5.98 | > 50 | 5.78 |
| O=C(c1ccc2cc[nH]c2c1)N1CCC2(CC1)CCN(Cc1ccccc1F)C2=O [Compound 44, 2-(2-fluorobenzyl)-8-(1H-indole-6-carbonyl)-2,8-diazaspiro[4.5]decan-1-one] | 6.73 | > 50 | 6.79 |
| O=C(c1ccc2cc[nH]c2c1)N1CCC2(CC1)CCN(Cc1cc(F)ccc1F)C2=O [Compound 46, 2-(2,5-difluorobenzyl)-8-(1H-indole-6-carbonyl)-2,8-diazaspiro[4.5]decan-1-one] | 6.20 | > 50 | 5.92 |
| O=C1N(Cc2cc(F)ccc2F)CCC12CCN(c1ncccn1)CC2 [Compound 51, 2-(2,5-difluorobenzyl)-8-(pyrimidin-2-yl)-2,8-diazaspiro[4.5]decan-1-one] | – | 41 | – |
| N#Cc1ccnc(N2CCC3(CCN(Cc4cc(F)ccc4F)C3=O)CC2)n1 [Compound 52, 2-(2-(2,5-difluorobenzyl)-1-oxo-2,8-diazaspiro[4.5]decan-8-yl) pyrimidine-4-carbonitrile] | – | > 50 | – |
| O=C(c1ccccc1)N1CCC2(CC1)CCN(Cc1cc(F)cc(F)c1F)C2=O [Compound 53, 8-benzoyl-2-(2,3,5-trifluorobenzyl)-2,8-diazaspiro[4.5]decan-1-one] | – | > 50 | – |
| N#Cc1ccccc1CN1CCC2(CCN(C(=O)c3ccccc3)CC2)C1=O [Compound 54, 2-((8-benzoyl-1-oxo-2,8-diazaspiro[4.5]decan-2-yl)methyl) benzonitrile] | – | 6 | – |
| Cc1nnc(N2CCC3(CCN(Cc4cc(F)ccc4F)C3=O)CC2)o1 [Compound 55, 2-(2,5-difluorobenzyl)-8-(5-methyl-1,3,4-oxadiazol-2-yl)-2,8-diazaspiro[4.5]decan-1-one] | – | 13 | – |
| N#Cc1ccc(N2CCC3(CCN(Cc4cc(F)ccc4F)C3=O)CC2)nn1 [Compound 56, 6-(2-(2,5-difluorobenzyl)-1-oxo-2,8-diazaspiro[4.5]decan-8-yl)pyridazine-3-carbonitrile] | – | 17 | – |
| N#Cc1ccc(F)cc1CN1CCC2(CCN(C(=O)c3ccccc3)CC2)C1=O [Compound 57, 2-((8-benzoyl-1-oxo-2,8-diazaspiro[4.5]decan-2-yl)methyl)-4-fluorobenzonitrile] | – | 25 | – |
| N#Cc1cc(N2CCC3(CCN(Cc4cc(F)ccc4F)C3=O)CC2)ncn1 [Compound 58, 6-(2-(2,5-difluorobenzyl)-1-oxo-2,8-diazaspiro[4.5]decan-8-yl)pyrimidine-4-carbonitrile] | – | > 50 | – |
| O=C(c1ccccc1)N1CCC2(CC1)N=CN(Cc1ccccc1)C2=O [Compound 59, 8-benzoyl-3-benzyl-1,3,8-triazaspiro[4.5]dec-1-en-4-one] | – | 38 | – |
| O=C(c1ccccc1)N1CCC2(CC1)N=CN(Cc1ccccc1F)C2=O [Compound 60, 8-benzoyl-3-(2-fluorobenzyl)-1,3,8-triazaspiro[4.5]dec-1-en-4-one] | – | > 50 | – |
| O=C(c1ccccc1)N1CCC2(CC1)N=CN(Cc1cc(F)ccc1F)C2=O [Compound 61, 8-benzoyl-3-(2,5-difluorobenzyl)-1,3,8-triazaspiro[4.5]dec-1-en-4-one] | – | > 50 | – |
| O=C(c1ccccc1)N1CCC2(C=NN(Cc3ccccc3)C2=O)CC1 [Compound 62, 8-benzoyl-2-benzyl-2,3,8-triazaspiro[4.5]dec-3-en-1-one] | – | > 50 | – |

| SMILES | pIC50 [1] | inhibition at 10 µM [1] [%] | pEC50 [2] |
| --- | --- | --- | --- |
| O=C(c1ccccc1)N1CCC2(C=NN(Cc3ccccc3F)C2=O)CC1 [Compound 63, 8-benzoyl-2-(2-fluorobenzyl)-2,3,8-triazaspiro[4.5]dec-3-en-1-one] | – | > 50 | – |
| O=C(c1ccccc1)N1CCC2(C=NN(Cc3cccc(F)c3)C2=O)CC1 [Compound 64, 8-benzoyl-2-(3-fluorobenzyl)-2,3,8-triazaspiro[4.5]dec-3-en-1-one] | – | > 50 | – |
| O=C(c1ccccc1)N1CCC2(C=NN(Cc3ccc(F)cc3)C2=O)CC1 [Compound 65, 8-benzoyl-2-(4-fluorobenzyl)-2,3,8-triazaspiro[4.5]dec-3-en-1-one] | – | 27 | – |
| O=C(c1ccccc1)N1CCC2(C=NN(Cc3cc(F)ccc3F)C2=O)CC1 [Compound 66, 8-benzoyl-2-(2,5-difluorobenzyl)-2,3,8-triazaspiro[4.5]dec-3-en-1-one] | – | > 50 | – |
| O=C(c1ccccc1)N1CCC2(C=NN(Cc3cc(F)cc(F)c3)C2=O)CC1 [Compound 67, 8-benzoyl-2-(3,5-difluorobenzyl)-2,3,8-triazaspiro[4.5]dec-3-en-1-one] | – | > 50 | – |
| O=C(c1ccccc1)N1CCC2(C=NN(Cc3cccc(C(F)(F)F)c3)C2=O)CC1 [Compound 68, 8-benzoyl-2-(3-(trifluoromethyl)benzyl)-2,3,8-triazaspiro[4.5]dec-3-en-1-one] | – | 13 | – |
| N#Cc1ccc(CN2N=CC3(CCN(C(=O)c4ccccc4)CC3)C2=O)cc1 [Compound 69, 4-((8-benzoyl-1-oxo-2,3,8-triazaspiro[4.5]dec-3-en-2-yl)methyl) benzonitrile] | – | 9 | – |
| O=C(c1ccccc1)N1CCC2(C=NN(Cc3cccc(Cl)c3)C2=O)CC1 [Compound 70, 8-benzoyl-2-(3-chlorobenzyl)-2,3,8-triazaspiro[4.5]dec-3-en-1-one] | – | 44 | – |
| O=C(c1ccccc1)N1CCC2(CC1)CNN(Cc1ccccc1)C2=O [Compound 71, 8-benzoyl-2-benzyl-2,3,8-triazaspiro[4.5]decan-1-one] | – | 31 | – |
| O=C(c1ccccc1)N1CCC2(CC1)CNN(Cc1ccccc1F)C2=O [Compound 72, 8-benzoyl-2-(2-fluorobenzyl)-2,3,8-triazaspiro[4.5]decan-1-one] | – | 40 | – |
| O=C(c1ccccc1)N1CCC2(CC1)CN(Cc1ccccc1)C2=O [Compound 73, 7-benzoyl-2-benzyl-2,7-diazaspiro[3.5]nonan-1-one] | – | 45 | – |
| O=C(c1ccccc1)N1CCC2(CCCN(Cc3ccccc3)C2=O)CC1 [Compound 74, 9-benzoyl-2-benzyl-2,9-diazaspiro[5.5]undecan-1-one] | – | > 50 | – |
| O=C(c1cscn1)N1CCC2(CC1)CCN(Cc1cc(F)ccc1F)C2=O [Compound 75, 2-(2,5-difluorobenzyl)-8-(thiazole-4-carbonyl)-2,8-diazaspiro [4.5]decan-1-one] | – | > 50 | – |
| O=C(c1ccc2ccoc2c1)N1CCC2(CC1)CCN(Cc1cc(F)ccc1F)C2=O [Compound 76, 8-(benzofuran-6-carbonyl)-2-(2,5-difluorobenzyl)-2,8-diazaspiro [4.5]decan-1-one] | – | > 50 | – |
| COc1cccc(C(=O)N2CCC3(CC2)CCN(Cc2cc(F)ccc2F)C3=O)c1 [Compound 77, 2-(2,5-difluorobenzyl)-8-(3-methoxybenzoyl)-2,8-diazaspiro[4.5]decan-1-one] | – | > 50 | – |
| CN1C(=O)C(Cc2c[nH]c3ccccc23)NC1=S (stereo not shown) [Nec-1, reference compound] | 5.95 | – | – |
